# “Also recorded” adds a separate entry of the source. Like-named read-outs stand apart in the source and are kept apart here.
# Legend:
# [1] = system: S. typhimurium MET708; assay: Tri-species synthetic ecosystem (E. coli, S. typhimurium, P. aeruginosa): AI-2 mediated β-galactosidase production; assay type: cell-based; details: tri-species culture, 40 μM analog, no exogenous AI-2, 4 h
# Procedure: (§1) Effect of analogs in a tri-species synthetic ecosystem. […] Isobutyl-DPD (40 μM) and phenyl-DPD (40 μM) were added to a tri-species synthetic ecosystem created by culturing E. coli, S. typhimurium and P. aeruginosa in the same tubes. In order to differentiate and monitor the QS response from each organism, different and orthogonal reporter strains were used; in E. coli, AI-2 mediated dsRED expression, in S. typhimurium, AI-2 mediated β-galactosidase production; and in P. aeruginosa effects of AI-2 were examined for pyocyanin production.
# (§2) S. typhimurium MET708, P. aeruginosa PAO1 and E. coli W3110 pCT6 dsRED were each cultured separately overnight in LB medium supplemented with the appropriate antibiotic. P. aeruginosa PAO1, S. typhimurium MET708 and E. coli W3110 pCT6 dsRED were diluted (25 μL:2.5 μL:100 μL) of the overnight culture respectively, into a single 2 mL final volume of fresh LB medium without antibiotics. […] The S. typhimurium lacZ (β-galactosidase) activity was measured after 4 h. The E. coli response was determined after 24 h, by fixing the cells with 1:1 cold 4% paraformaldehyde and using flow cytometric analysis. Samples were analyzed by flow cytometry (FACS Canto II, BD 394 Biosciences), with 30,000 gated events analyzed per sample. […]
# [2] = system: lsr expression in E. coli (lsr-lacZ reporter strains); assay: QS response (lsr expression): AI-2 dependent β-galactosidase production, Miller assay; assay type: cell-based, Escherichia coli
# Procedure: (§3) The panel of C1-alkyl analogs was screened to identify QS modulators in the enteric bacteria E. coli and S. typhimurium. Transcription of the QS associated lsr operon, by using lsr-lacZ reporter strains (Table 2) which produce β-galactosidase in response to added AI-2 was monitored. In order to first establish if the analogs were agonists or antagonists in the QS circuit, the analogs were incubated with E. coli LW7 pLW11 and S. typhimurium MET715 (FIG. 19a-b) both of which are luxS^−. None of the analogs, except ethyl-DPD behaved as agonists for lsr expression. Previous studies investigating AI-2 antagonism in P. aeruginosa or in S. typhimurium were carried out using chemically synthesized AI-2 added to luxS^− cells. […] The same trends were obtained by adding a 1:1 ratio of enzymatically synthesized AI-2 and DPD analogs to the luxS^− strains E. coli LW7 pLW11 and S. typhimurium MET715 (FIG. 11a-b). None of the tested DPD analogs were bacteriocidal or bacteriostatic as the OD600 values of E. coli ZK126 pLW11 and S. typhimurium MET708 in the presence and absence of the analogs were similar (FIG. 10). Though the QS circuitry of the enteric organisms, E. coli and S. typhimurium are homologous they respond differently to the DPD analogs. The E. coli QS circuitry is susceptible to being silenced by a variety of DPD analogs of different shapes and sizes whereas in S. typhimurium, only a handful of DPD analogs could antagonize the action of AI-2. […] Isobutyl-DPD emerged as an effective and non-species-specific quencher; causing significant lsr expression knockdowns in both E. coli and S. typhimurium.
# (§4) The QS response indicated by lsr gene expression was analyzed in pure culture studies by culturing E. coli LW7 pLW11, E. coli ZK126 pLW11 and S. typhimurium MET708, S. typhimurium MET715 overnight in LB medium supplemented with appropriate antibiotics as stated previously. These cells were then diluted into fresh LB medium (with antibiotics) and grown to an OD600 of 0.8-1.0 at 30° C., 250 rpm. Cells were then collected by centrifugation at 10,000×g for 10 minutes, and resuspended in 10 mM phosphate buffer. AI-2 (20 μM) and the respective analog (20 μM) were added to the E. coli or S. typhimurium suspension for 2 hours at 37° C. AI-2 dependent β-galactosidase production was quantified by the Miller assay.
# (§5) The QS response indicated by lsr gene expression was analyzed in pure culture studies by culturing E. coli LW7 pLW11 and S. typhimurium MET715 overnight at 30° C. in LB medium supplemented with appropriate antibiotics as stated previously. These cells were then diluted into fresh LB medium (with antibiotics) and grown to an OD600 of 0.4-0.8 at 37° C., 250 rpm. Cells were then collected by centrifugation at 10,000×g for 10 min and resuspended in 10 mM phosphate buffer. AI-2 (20 μM) and the respective analog (20 μM) were added to the E. coli or S. typhimurium suspension for 2 h at 37° C. AI-2 dependent β-galactosidase production was quantified by the Miller assay.
# (§6) The QS response indicated by lsr gene expression was analyzed in pure culture studies by culturing E. coli LW7 pLW11, E. coli ZK126 pLW11 and S. typhimurium MET708, S. typhimurium MET715 overnight in LB medium individually supplemented with appropriate antibiotics, as specified above. These cells were diluted into fresh LB medium (with antibiotics) and grown to an OD600 of 0.8-1.0 at 30° C., 250 rpm. Cells were collected by centrifugation at 10,000×g for 10 minutes, and resuspended in 10 mM phosphate buffer. AI-2 (20 μM) and the respective analog (20 μM) were added to the E. coli or S. typhimurium suspension for 2 hours at 37° C. AI-2 dependent β-galactosidase production was quantified by the Miller assay.
# [3] = system: E. coli W3110 pCT6 dsRED; assay: Tri-species synthetic ecosystem (E. coli, S. typhimurium, P. aeruginosa): AI-2 mediated dsRED expression; assay type: cell-based; details: tri-species culture, 40 μM analog, no exogenous AI-2, 24 h
# Procedure: as §1, §2
# [4] = system: pyocyanin production in P. aeruginosa PAO1; assay: QS response (pyocyanin production); assay type: cell-based; details: pure culture P. aeruginosa PAO1, DPD analogs (100 μM)
# Procedure: Identifying Modulators of P. aeruginosa QS. DPD analogs (100 μM) were screened for activity in P. aeruginosa PAO1 by monitoring pyocyanin production (FIG. 34b and FIG. 38).
# The cells were grown with the analog at 3 mL total volume in 50 mL flasks in LB medium, with continuous shaking. Between 22-24 h, when the cells turned green after pyocyanin secretion, the pigment was extracted. The pyocyanin quantification assay was conducted as described. 2 mL chloroform was added to the 3 mL culture and pipetted up and down. 1 mL of the chloroform was transferred to a separate tube and the pyocyanin was re-extracted into 200 μL of 0.2 M HCl. The absorbance of the solution was measured at OD 520 nm. To calculate the concentration of pyocyanin extracted as μg/mL, the OD at 520 nm was multiplied by 17.07.
# [5] = system: lsr expression in S. typhimurium (lsr-lacZ reporter strains); assay: QS response (lsr expression): AI-2 dependent β-galactosidase production, Miller assay; assay type: cell-based, Salmonella typhimurium
# Procedure: as §3, §4, §5, §6
# [6] = system: P. aeruginosa PAO1; assay: Tri-species synthetic ecosystem (E. coli, S. typhimurium, P. aeruginosa): pyocyanin production; assay type: cell-based; details: tri-species culture, 40 μM analog, no exogenous AI-2, 24 h
# Procedure: as §1, §2
Structure (SMILES),QS inhibition in S. typhimurium (β-galactosidase production) [1],"effect on native lsr expression (QS response) ([2]; E. coli ZK126 pLW11 (luxS+), cells produce their own AI-2)","IC50 (lsr expression in E. coli), in words ([2]; Example 6)","IC50 ([2]; concentration reducing lsr expression (β-galactosidase production) to 50% in the presence of 20 μM exogenously added synthetic DPD, read-out: IC50 of analog (nM) to inhibit QS in E. coli)",QS inhibition in E. coli (dsRED expression) [3],inhibition of pyocyanin production [4],"effect on native lsr expression (QS response) ([5]; S. typhimurium MET708 (luxS+), cells produce their own AI-2)","decrease of lacZ expression ([5]; S. typhimurium MET715 (LuxS−), 20 μM AI-2 + 20 μM analog)","IC50 ([5]; concentration reducing lsr expression (β-galactosidase production) to 50% in the presence of 20 μM exogenously added synthetic DPD, read-out: IC50 of analog (nM) to inhibit QS in S. typhimurium)",QS inhibition in P. aeruginosa (pyocyanin production) [6],"inhibition of AI-2-mediated lsr expression (β-galactosidase), in words ([2]; E. coli LW7 pLW11 (luxS−), 20 μM AI-2 (DPD) + 20 μM analog)","IC50 ([2]; Escherichia coli, read-out: IC50 (lsr expression in E. coli))"
"CC(C)CC(=O)C(=O)[C@@H](O)CO [Isobutyl-DPD, isobutyl-DPD]",inhibit all three species,significant knocked down; also recorded: potent QS “quencher”,nanomolar range,54 nM,inhibit all three species,lack of inhibitory effects,significant knocked down; also recorded: significantly inhibited signaling,about 50%,20000 nM,,,
"O=C(C(=O)C(O)CO)c1ccccc1 (stereo not drawn) [Phenyl-DPD, Phenyl DPD]",largely ineffective,,,,largely ineffective,some inhibition,,,,retained some activity,no,> 40000 nM

# — patent US8952192B2, “Phosphorylated and branched dihydroxy-pentane-dione (DPD) analogs as quorum sensing inhibitors in bacteria” (University of Maryland, College Park, priority 2011, dated 2015)
